Measurements reported in US8916583B2, “Therapeutic compositions for intranasal administration of zolpidem” (Renascence Therapeutics Limited, priority 2012, dated 2014).
Where a name gives a salt, the structure may show the parent alone.

Experiments:
[1] = Pharmacokinetic study in beagle dogs; settings: for CL/F / Rel F(5 mg oral) / Tmax: beagle dogs; for Rel F(5 mg oral): relative to 5 mg oral; for AUC(0-inf) / AUC(0-t) / Cmax / MRT / half-life / Tmax: both, beagle, dog, plasma
Description: Eight beagle dogs (4 male and 4 female) participated in the study. […] Water was given ad libitum throughout the study. Food was provided 4 hours post-dose. Blood samples were collected at pre-dose (0 min) and at 3, 6, 9, 12, 15, 20, 30, 45 minutes; and at 1, 1.5, 2, 3, 4, 6, 8, 24 hours post-dose. After plasma-separation process, the samples were analyzed by a validated LC-MS/MS method.

[2] = cited from earlier work
[3] = system: plasma proteins; settings: cited from earlier work
[4] = system: toad palate; test: Nasal ciliotoxicity evaluation, in-situ toad palate model; assay type: in vivo; design: key to Ciliotoxicity: no effect: cilia on the mucosa was intact, dense and beating actively; mild: less than 25% ciliostasis; moderate: cilia was disarranged or only partial cilia left; all cilia lost and apical cell border was severe deformed; settings: 0.2 ml, 4 h, light microscope 400×
Description: The nasal ciliotoxicity of zolpidem tartrate, solubilizing agents and several nasal solution formulations were investigated using an in-situ toad palate model. Briefly, 0.2 ml test formulations were administrated on a toad palate. […] The mucocilia was examined with a light microscope at enlargements of 400× (n=3˜6). Saline and a typical nasal mucociliary toxic agent—sodium deoxycholatee—were used as a negative and positive control, respectively. Study protocol was illustrated in Table 11, and the degree of ciliotoxicity caused by the test formulations was coarse classified as follows: “no effect”: cilia on the mucosa was intact, dense and beating actively; “mild”: less than 25% ciliostasis; “moderate”: cilia was disarranged or only partial cilia left; “severe”: all cilia lost and apical cell border was severe deformed.

[5] = cited from earlier work; remark: listed apart in the source
[6] = intranasal administration (ZLP-B01), 1.25 mg/dog
[7] = intranasal administration (ZLP-B01), 2.5 mg/dog
[8] = intranasal administration (ZLP-B01), 5 mg/dog

For `Cc1ccc(-c2nc3ccc(C)cn3c2CC(=O)N(C)C)cc1` [Zolpidem, N,N,6-trimethyl-2-(4-methylphenyl)-imidazo[1,2-a]pyridine-3-acetamide], the CL/F [1, 6] was 110 ± 41 L/h, the “Rel F(5 mg oral)” value [1, 6] was 167% and the CL/F [1, 7] was 144 ± 76 L/h. The “Rel F(5 mg oral)” value [1, 7] was 145%, the CL/F [1, 8] was 181 ± 137 L/h and the “Rel F(5 mg oral)” value [1, 8] was 124%. For the same molecule, the CL/F ([1]; oral administration (marketed tablet, Stilnox), 5 mg/dog) was 204 ± 96 L/h, the CL/F ([1]; oral administration (marketed tablet, Stilnox), 10 mg/dog) was 110 ± 69 L/h and the AUC(0-inf) ([1]; inhaled or intranasal, 1.25 mg) was 0.0129 ± 0.0052 µg·h/mL. For the same molecule, the AUC(0-t) ([1]; inhaled or intranasal, 1.25 mg) was 0.0128 ± 0.00524 µg·h/mL, the Cmax ([1]; inhaled or intranasal, 1.25 mg) was 0.013 ± 0.00636 µg/mL and the MRT ([1]; inhaled or intranasal, 1.25 mg) was 67.8 ± 10.8 min. The half-life ([1]; inhaled or intranasal, 1.25 mg) was 57 ± 10.8 min, the Tmax ([1]; inhaled or intranasal, 1.25 mg, intranasal administration (ZLP-B01), 1.25 mg/dog) was 8.4 ± 1.8 min and the AUC(0-inf) ([1]; inhaled or intranasal, 2.5 mg) was 0.0224 ± 0.0121 µg·h/mL. It also gave an AUC(0-t) ([1]; inhaled or intranasal, 2.5 mg) of 0.0222 ± 0.0122 µg·h/mL, a Cmax ([1]; inhaled or intranasal, 2.5 mg) of 0.022 ± 0.0131 µg/mL and an MRT ([1]; inhaled or intranasal, 2.5 mg) of 74.4 ± 49.8 min. The half-life ([1]; inhaled or intranasal, 2.5 mg) was 43.8 ± 13.8 min, the Tmax ([1]; inhaled or intranasal, 2.5 mg, intranasal administration (ZLP-B01), 2.5 mg/dog) was 8.4 ± 4.2 min and the AUC(0-inf) ([1]; inhaled or intranasal, 5 mg) was 0.0381 ± 0.0185 µg·h/mL. The AUC(0-t) ([1]; inhaled or intranasal, 5 mg) was 0.038 µg·h/mL, the Cmax ([1]; inhaled or intranasal, 5 mg) was 0.0333 µg/mL and the MRT ([1]; inhaled or intranasal, 5 mg) was 90 ± 19.8 min. For the same molecule, the half-life ([1]; inhaled or intranasal, 5 mg) was 68.4 ± 11.4 min, the Tmax ([1]; inhaled or intranasal, 5 mg, intranasal administration (ZLP-B01), 5 mg/dog) was 12.6 min and the Tmax ([1]; inhaled or intranasal, 5 mg, range over dogs, intranasal administration, 5 mg/dog) was 3 to 15 min. It also gave an AUC(0-inf) ([1]; po, 5 mg) of 0.0307 ± 0.0169 µg·h/mL, an AUC(0-t) ([1]; po, 5 mg) of 0.0306 µg·h/mL and a Cmax ([1]; po, 5 mg) of 0.0255 µg/mL. It also gave an MRT ([1]; po, 5 mg) of 100 ± 27.6 min, a half-life ([1]; po, 5 mg) of 57.6 ± 10.2 min and a Tmax ([1]; po, 5 mg, oral administration (marketed tablet, Stilnox), 5 mg/dog) of 41.4 min. It also gave a Tmax ([1]; po, 5 mg, range over dogs, oral administration, 5 mg/dog) of 19.8 to 120 min, an AUC(0-inf) ([1]; po, 10 mg) of 0.121 ± 0.0646 µg·h/mL and an AUC(0-t) ([1]; po, 10 mg) of 0.12 ± 0.0644 µg·h/mL. It also gave a Cmax ([1]; po, 10 mg) of 0.128 ± 0.0597 µg/mL, an MRT ([1]; po, 10 mg) of 79.8 ± 18 min and a half-life ([1]; po, 10 mg) of 59.4 ± 12.6 min. For the same molecule, the Tmax ([1]; po, 10 mg, oral administration (marketed tablet, Stilnox), 10 mg/dog) was 25.8 ± 11.4 min, the “time to peak plasma concentrations” value ([2]; after oral doses) was no more than 3 h and the elimination half-life ([2]; in vivo) was “about 2.5 hours”. For the same molecule, the absolute bioavailability ([2]; oral, first-pass metabolism) was “about 70%” and the “bound to plasma proteins” value [3] was “about 92%”.
For “sodium deoxycholate [1% sodium deoxycholate]”, the Ciliotoxicity [4] was “severe” and the Optical microscopic observation [4] was “no cilia on the mucosa”.
For `Cc1ccc(-c2nc3ccc(C)cn3c2CC(=O)N(C)C)cc1` [Zolpidem tartrate], the aqueous solubility ([5]; at 20° C.) is given as “about 23 mg/ml” and the “solubility in water” value ([5]; water) is given as “slightly soluble”.
